Tested on: LTB4 biosynthesis in human polymorphonuclear leukocytes (PMNs)
Experiment: Inhibition of LTB4 biosynthesis in human polymorphonuclear leukocytes (PMNs)
Assay type: cell-based
Details: Homo sapiens, Leukocyte, Table 1A, Esters; LTB4, A23187-stimulated human PMNs
Procedure: Inhibition of LTB4, biosynthesis in human polymorphonuclear leukocytes (PMNs)
The inhibition of leukotriene biosynthesis is measured by determining whether and to what extent test compounds can inhibit LTB4 production from endogenous arachidonic acid in human peripheral blood leukocytes.
To 48-well tissue culture plates was added a solution of the test compound followed by addition of human polymorphonuclear leukocytes isolated from peripheral blood at a density of 1.5×10^6 cells/well. Culture plates were preincubated for fifteen minutes with shaking at 28° C. Cells were stimulated with calcium ionophore A23187 at a final concentration of 2.5 μM for an additional ten minutes. The reaction was terminated by the addition of an EGTA solution (10 mM final concentration)followed by centrifugation at 1500 rpm at 10° C. Supernatants were stored at -70° C. LTB4 levels were determined by RIA using a commercially available kit. Nonlinear regression analysis was used to calculate. IC50 values.
The following tables show % inhibition of LTB4 biosynthesis by compounds of the invention at test concentrations indicated, with the determined IC50 shown in μM.

First: CCOC(=O)C(C)(Cc1ccccc1)Nc1nc2ccccc2s1 (stereo not shown) [Compound 38]
Second: CCOC(=O)C(Cc1ccccc1)N(C)c1nc2ccccc2s1 (stereo not shown) [Compound 36]
The IC50 of the first is 5-fold lower: 200 nM for the first, 1000 nM for the second.

Same assay, conditions: Homo sapiens, Leukocyte, Table 2, Amides; values with <: see footnote d, Tables 1 and 1A

With `CCNC(=O)C(Cc1ccccc1)Nc1nc2ccc(C(C)C)cc2s1` (stereo not shown) [Compound 42] the IC50 was 3000 nM.

Same assay, conditions: Homo sapiens, Leukocyte, Table 3, Phenyl; values with <: see footnote d, Table 1

Compared with `Clc1ccc(C(CC2CCCCC2)Nc2nc3ccccc3o2)cc1` (stereo not shown) [Compound 55], `N#Cc1ccc2oc(NC(CC3CCCCC3)c3ccccc3)nc2c1` (stereo not shown) [Compound 67] is 2-fold lower in IC50: 300 nM for the first, 150 nM for the second. The second is the more potent here.

`c1ccc(CC(Nc2nc3ccccc3s2)c2ccccc2)cc1` (stereo not shown) [Compound 47] and `O=C(O)c1ccc2oc(NC(CC3CCCCC3)c3ccccc3)nc2c1` (stereo not shown) [Compound 63] are within 1.5-fold of each other in IC50: 160 nM for the first, 190 nM for the second.

Same assay, conditions: Homo sapiens, Leukocyte, Table 4, Pyridyl; values with <: see footnote d, Table 1

Going from `Fc1ccc2oc(NC(CC3CCCCC3)c3ccccn3)nc2c1` (stereo not shown) [Compound 109] to `FC(F)(F)c1ccc2oc(NC(CC3CCCCC3)c3ccccn3)nc2c1` (stereo not shown) [Compound 95], the IC50 falls from 2 nM to 1.2 nM (1.7-fold).

`Cc1nc(CC(Nc2nc3cc(C(C)C)ccc3o2)c2ccccn2)cs1` (stereo not shown) [Compound 116] and `Cc1nc(CC(Nc2nc3cc(Cl)ccc3o2)c2ccccn2)cs1` (stereo not shown) [Compound 117] cannot be ordered by IC50: less than 100 nM for the first, less than 100 nM for the second.

`O=[N+]([O-])c1ccc2oc(NC(Cc3ccc(F)cc3)c3ccccn3)nc2c1` (stereo not shown) [Compound 115] and `O=[N+]([O-])c1ccc(CC(Nc2nc3cc(Cl)ccc3o2)c2ccccn2)cc1` (stereo not shown) [Compound 104] cannot be ordered by IC50: less than 30 nM for the first, less than 30 nM for the second.

Going from `Fc1ccc(CC(Nc2nc3cc(F)ccc3o2)c2ccccn2)cc1` (stereo not shown) [Compound 110] to `Fc1ccc(CC(Nc2nc3cc(C(F)(F)F)ccc3o2)c2ccccn2)cc1` (stereo not shown) [Compound 107], the IC50 falls from 21 nM to 8 nM (2.6-fold). The second is the more potent here.

Compared with `c1cncc(C(CC2CCCCC2)Nc2nc3ccccc3o2)c1` (stereo not shown) [Compound 80], `Cc1ccc2oc(NC(CC3CCCCC3)c3ccncc3)nc2c1` (stereo not shown) [Compound 83] is 3.5-fold higher in IC50: 55 nM for the first, 190 nM for the second. The first is the more potent here.

Compared with `Fc1ccc2oc(NC(CC3CCCCC3)c3ccccn3)nc2c1F` (stereo not shown) [Compound 111], `Fc1cc2nc(NC(CC3CCCCC3)c3ccccn3)oc2cc1F` (stereo not shown) [Compound 112] is 4-fold lower in IC50: 4 nM for the first, 1 nM for the second.

Compared with `CN(C)S(=O)(=O)c1ccc2oc(NC(Cc3ccc(F)cc3)c3ccccn3)nc2c1` (stereo not shown) [Compound 103], `Fc1ccc(CC(Nc2nc3cc(F)c(F)cc3o2)c2ccccn2)cc1` (stereo not shown) [Compound 113] is 2.1-fold lower in IC50: 50 nM for the first, 24 nM for the second.

`Clc1ccc2sc(NC(CC3CCCCC3)c3ccccn3)nc2c1` (stereo not shown) [Compound 97] gave an IC50 of 4 nM.

Same assay, conditions: Homo sapiens, Leukocyte, Table 5, Thiophene

For `c1csc(C(CC2CCCCC2)Nc2nc3ccccc3o2)c1` (stereo not shown) [Compound 120], the IC50 was 6.2 nM.

Same assay, conditions: Homo sapiens, Leukocyte, Table 6, Methyloxadiazole; values with <: see footnote d, Table 1

`Cc1noc(C(Cc2csc(C)n2)Nc2nc3cc(C(C)C)ccc3o2)n1` (stereo not shown) [Compound 127] and `Cc1noc(C(Cc2ccc(F)cc2)Nc2nc3cc(C(C)C)ccc3o2)n1` (stereo not shown) [Compound 126] cannot be ordered by IC50: less than 1000 nM for the first, less than 300 nM for the second.

Compared with `Cc1noc([C@H](Cc2ccccc2)Nc2nc3ccccc3s2)n1` [Compound 122], `Cc1noc([C@H](CC2CCCCC2)Nc2nc3ccccc3s2)n1` [Compound 124] is 15-fold lower in IC50: 1800 nM for the first, 120 nM for the second.

Work on `Cc1ccc2oc(N[C@@H](CC3CCCCC3)c3nc(C)no3)nc2c1` [Compound 125, L-2-[2-Cyclohexyl-1-(3-methyl-1,2,4-oxadiazol-5-yl)ethyl]amino-5-methylbenzoxazole] yielded an IC50 of 28 nM.

Same assay, conditions: Homo sapiens, Leukocyte, Table 7, Ketones

`Cc1ccc2oc(N[C@@H](CC3CCCCC3)C(=O)c3ccccc3)nc2c1` [Compound 131] and `O=C(c1ccccc1)[C@H](Cc1ccccc1)Nc1nc2ccccc2o1` [Compound 130] cannot be ordered by IC50: less than 1000 nM for the first, less than 300 nM for the second.

For `CC(=O)[C@H](Cc1ccccc1)Nc1nc2ccccc2o1` [Compound 129], the IC50 was less than 1000 nM.

Same assay, conditions: Homo sapiens, Leukocyte, Table 8, Miscellaneous Acyclic; values with <: see footnote d, Table 1

`CC(C)c1ccc2oc(N[C@@H](Cc3ccccc3)CN(C)C)nc2c1` [Compound 150] and `CCCOC[C@H](Cc1ccccc1)Nc1nc2cc(C(C)C)ccc2o1` [Compound 134] cannot be ordered by IC50: less than 300 nM for the first, 220 nM for the second.

`CSCC(Cc1cccnc1)Nc1nc2cc(C(C)C)ccc2o1` (stereo not shown) [Compound 143] and `CC(C)c1ccc2oc(NC(Cc3cccnc3)CS(C)(=O)=O)nc2c1` (stereo not shown) [Compound 147] cannot be ordered by IC50: less than 1000 nM for the first, less than 1000 nM for the second.

Going from `CSC[C@H](Cc1cccc(Cl)c1)Nc1nc2cc(C(C)C)ccc2o1` [Compound 142] to `CNC(=O)OC[C@H](Cc1ccccc1)Nc1nc2cc(C(C)C)ccc2o1` [Compound 154], the IC50 rises from less than 30 nM to 63 nM. The first is the more potent here.

Same assay, conditions: Homo sapiens, Leukocyte, Table 9, Miscellaneous Heterocycle; values with <: see footnote d, Table 1

`CC(C)c1ccc2oc(NC(Cc3ccc(F)cc3)c3ncc[nH]3)nc2c1` (stereo not shown) [Compound 156] and `CC(C)c1ccc2oc(NC(Cc3ccccc3)c3cn[nH]c3)nc2c1` (stereo not shown) [Compound 161] cannot be ordered by IC50: 90 nM for the first, less than 100 nM for the second.

Same assay, conditions: Homo sapiens, Leukocyte, Table 10, Oxazolopyridines; values with <: see footnote d, Table 1

Going from `Cc1ccc2oc(NC(CC3CCCCC3)c3cccnc3)nc2n1` (stereo not shown) [Compound 168] to `c1ccc(C(CC2CCCCC2)Nc2nc3ncccc3o2)cc1` (stereo not shown) [Compound 163], the IC50 falls from 300 nM to 78 nM (3.8-fold).

Same assay, conditions: Homo sapiens, Leukocyte, Table 11, Thiazolopyridines; values with <: see footnote d, Table 1

Compared with `c1cncc(C(CC2CCCCC2)Nc2nc3cccnc3s2)c1` (stereo not shown) [Compound 173], `c1ccc(C(CC2CCCCC2)Nc2nc3cccnc3s2)cc1` (stereo not shown) [Compound 172, 2-[(2-Cyclohexyl-1-phenylethyl)amino]thiazolo[5,4-b]pyridine] is 6.3-fold lower in IC50: 170 nM for the first, 27 nM for the second.

Going from `c1ccc(C(CC2CCCCC2)Nc2nc3cccnc3s2)nc1` (stereo not shown) [Compound 174] to `Cc1ccc2sc(NC(CC3CCCCC3)c3ccccn3)nc2n1` (stereo not shown) [Compound 187], the IC50 falls from 27 nM to 13 nM (2.1-fold). The second is the more potent here.

First: Cc1nc2nc(NC(CC3CCCCC3)c3ccccn3)sc2cc1Br (stereo not shown) [Compound 185]
Second: Fc1ccc(CC(Nc2nc3ncc(Cl)cc3s2)c2ccccn2)cc1 (stereo not shown) [Compound 189]
The IC50 of the first is 4.3-fold lower: 6.5 nM for the first, 28 nM for the second.

Same assay, conditions: Leukocyte; Table 1, Esters; LTB4, A23187-stimulated human PMNs; values with < (footnote d): greater than 50% (504 [sic]) inhibition at this concentration, IC50 not characterized further

First: CCOC(=O)C(Cc1ccc(Cl)cc1)Nc1nc2ccc(OC)cc2s1 (stereo not shown) [Compound 9]
Second: CCOC(=O)C(Cc1ccc(Br)cc1)Nc1nc2ccccc2s1 (stereo not shown) [Compound 3]
The IC50 of the first is 1.5-fold higher: 230 nM for the first, 150 nM for the second.

Going from `COC(=O)[C@H](Cc1ccccc1)Nc1nc2ccc(C(C)C)cc2s1` [Compound 8] to `COC(=O)[C@@H](Cc1ccccc1)Nc1nc2ccc(C(C)C)cc2s1` [Compound 10], the IC50 rises from 140 nM to 650 nM (4.6-fold).

`Cc1ccc2oc(N[C@@H](CC3CCCCC3)C(=O)OC(C)(C)C)nc2c1` [Compound 25] and `COC(=O)[C@@H](CC1CCCCC1)Nc1nc2cc(C)ccc2o1` [Compound 26] cannot be ordered by IC50: less than 300 nM for the first, 16 nM for the second.

Compared with `CCOC(=O)[C@H](Cc1ccccc1)Nc1nc2cc(CC)ccc2s1` [Compound 14], `CCOC(=O)[C@H](Cc1ccccc1)Nc1nc2ccc(CC)cc2s1` [Compound 12] is 27-fold higher in IC50: 9 nM for the first, 240 nM for the second.

`CCOC(=O)C(Cc1csc(C)n1)Nc1nc2cc(Cl)ccc2o1` (stereo not shown) [Compound 29] and `CCOC(=O)C(Cc1ccncc1)Nc1nc2cc(C(C)C)ccc2o1` (stereo not shown) [Compound 31] cannot be ordered by IC50: 87 nM for the first, less than 100 nM for the second.

First: COC(=O)[C@@H](CC1CCCCC1)Nc1nc2ccccc2o1 [Compound 22]
Second: COC(=O)[C@H](CC1CCCCC1)Nc1nc2ccccc2o1 [Compound 21]
The IC50 of the first is 16-fold higher: 100 nM for the first, 6.4 nM for the second. The second is the more potent here.

`CCOC(=O)C(Cc1ccc(F)cc1)Nc1nc2ccccc2s1` (stereo not shown) [Compound 2] and `CCOC(=O)C(Cc1ccccc1)Nc1nc2ccccc2s1` (racemic) [Compound 4, DL-N-(Benzothiazol-2-yl)phenylalanine ethyl ester] are within 1.5-fold of each other in IC50: 330 nM for the first, 400 nM for the second.

Same assay, conditions: Table 4, Pyridyl; values with <: see footnote d, Table 1

Going from `Fc1ccc(CC(Nc2nc3cc(Cl)ccc3o2)c2ccccn2)cc1` (single isomer, unassigned) [Compound 119] to `Cc1ccc2oc(NC(CC3CCCCC3)c3ccccn3)nc2c1` (single isomer, unassigned) [Compound 87], the IC50 falls from 320 nM to 1.3 nM (250-fold). The second is the more potent here.

Same assay, conditions: Table 10, Oxazolopyridines; values with <: see footnote d, Table 1

Work on `Cc1ccc2oc(NC(CC3CCCCC3)c3ccccn3)nc2n1` (single isomer, unassigned) [Compound 166] yielded an IC50 of 15 nM.
